Data as given in a compilation of properties of binary mixtures (doi:10.1016/j.jct.2020.106093).

Experiment: xn = mol fraction of the nth substance listed
Conditions: 100.9 kPa

CC(=O)[O-].CC[NH2+]CC + O
Conditions | electrical conductivity [S/m] | speed of sound [m/s] | viscosity [mPa·s]
283.15 K, x1 = 0.015 | – | – | 2.07
283.15 K, x1 = 0.055 | – | – | 5.43
283.15 K, x1 = 0.119 | – | – | 15.42
283.15 K, x1 = 0.549 | – | – | 143.2
283.15 K, x1 = 0.714 | – | – | 161.6
285.65 K, x1 = 0.015 | – | – | 1.92
285.65 K, x1 = 0.055 | – | – | 4.91
285.65 K, x1 = 0.119 | – | – | 13.69
285.65 K, x1 = 0.168 | – | – | 24.1
285.65 K, x1 = 0.24 | – | – | 47.8
285.65 K, x1 = 0.351 | – | – | 79.3
285.65 K, x1 = 0.549 | – | – | 122.5
285.65 K, x1 = 0.714 | – | – | 138.5
288.15 K, x1 = 0.015 | – | – | 1.78
288.15 K, x1 = 0.055 | – | – | 4.46
288.15 K, x1 = 0.119 | – | – | 12.18
288.15 K, x1 = 0.168 | – | – | 21.1
288.15 K, x1 = 0.24 | – | – | 41.6
288.15 K, x1 = 0.351 | – | – | 68.3
288.15 K, x1 = 0.714 | – | – | 119
290.65 K, x1 = 0.015 | – | – | 1.65
290.65 K, x1 = 0.055 | – | – | 4.05
290.65 K, x1 = 0.119 | – | – | 10.87
290.65 K, x1 = 0.168 | – | – | 18.7
290.65 K, x1 = 0.24 | – | – | 36.3
290.65 K, x1 = 0.351 | – | – | 59
290.65 K, x1 = 0.549 | – | – | 90.6
290.65 K, x1 = 0.714 | – | – | 102.7
293.15 K, x1 = 0.015 | – | 1580 | 1.538
293.15 K, x1 = 0.055 | – | 1761 | 3.73
293.15 K, x1 = 0.119 | – | 1844 | 9.74
293.15 K, x1 = 0.168 | – | 1826 | 16.49
293.15 K, x1 = 0.24 | – | 1768 | 31.8
293.15 K, x1 = 0.35 | – | 1704 | –
293.15 K, x1 = 0.351 | – | – | 51.2
293.15 K, x1 = 0.549 | – | 1597 | 78.4
293.15 K, x1 = 0.708 | – | 1554 | –
293.15 K, x1 = 0.714 | – | – | 89.2
293.15 K, x1 = 0.835 | – | 1523 | –
295.65 K, x1 = 0.015 | – | – | 1.437
295.65 K, x1 = 0.055 | – | – | 3.4
295.65 K, x1 = 0.119 | – | – | 8.75
295.65 K, x1 = 0.24 | – | – | 28
295.65 K, x1 = 0.351 | – | – | 44.7
295.65 K, x1 = 0.549 | – | – | 68.4
295.65 K, x1 = 0.714 | – | – | 77.8
298.15 K, x1 = 0.007 | 1.55 | – | –
298.15 K, x1 = 0.015 | 2.35 | 1588 | 1.346
298.15 K, x1 = 0.054 | 3.1 | – | –
298.15 K, x1 = 0.055 | – | 1756 | 3.12
298.15 K, x1 = 0.119 | – | 1832 | 7.91
298.15 K, x1 = 0.12 | 2.48 | – | –
298.15 K, x1 = 0.168 | 1.73 | 1813 | 13.13
298.15 K, x1 = 0.24 | 0.98 | 1754 | 24.8
298.15 K, x1 = 0.351 | – | – | 39.3
298.15 K, x1 = 0.353 | 0.708 | – | –
298.15 K, x1 = 0.549 | – | 1583 | 59.9
298.15 K, x1 = 0.55 | 0.365 | – | –
298.15 K, x1 = 0.714 | 0.26 | – | 68.2
298.15 K, x1 = 0.835 | – | 1507 | –
298.15 K, x1 = 0.838 | 0.231 | – | –
298.15 K, x1 = 0.945 | 0.23 | – | –
300.65 K, x1 = 0.015 | – | – | 1.263
300.65 K, x1 = 0.055 | – | – | 2.88
300.65 K, x1 = 0.119 | – | – | 7.17
300.65 K, x1 = 0.24 | – | – | 21.9
300.65 K, x1 = 0.351 | – | – | 34.6
300.65 K, x1 = 0.549 | – | – | 52.4
300.65 K, x1 = 0.714 | – | – | 60
303.15 K, x1 = 0.007 | 1.69 | – | –
303.15 K, x1 = 0.015 | 3.24 | 1595 | 1.189
303.15 K, x1 = 0.054 | 4.76 | – | –
303.15 K, x1 = 0.055 | – | 1751 | 2.67
303.15 K, x1 = 0.119 | – | 1819 | 6.51
303.15 K, x1 = 0.12 | 3.2 | – | –
303.15 K, x1 = 0.24 | 1.5 | 1741 | 19.6
303.15 K, x1 = 0.35 | – | 1677 | –
303.15 K, x1 = 0.353 | 0.823 | – | –
303.15 K, x1 = 0.549 | – | 1569 | 46.3
303.15 K, x1 = 0.55 | 0.473 | – | –
303.15 K, x1 = 0.708 | – | 1524 | –
303.15 K, x1 = 0.714 | 0.365 | – | 53
303.15 K, x1 = 0.838 | 0.297 | – | –
303.15 K, x1 = 0.945 | 0.29 | – | –
305.65 K, x1 = 0.015 | – | – | 1.121
305.65 K, x1 = 0.055 | – | – | 2.48
305.65 K, x1 = 0.119 | – | – | 5.94
305.65 K, x1 = 0.168 | – | – | 9.61
305.65 K, x1 = 0.351 | – | – | 27.2
305.65 K, x1 = 0.549 | – | – | 41.1
305.65 K, x1 = 0.714 | – | – | 47
308.15 K, x1 = 0.015 | – | 1601 | 1.059
308.15 K, x1 = 0.055 | – | 1745 | 2.31
308.15 K, x1 = 0.119 | – | 1807 | 5.44
308.15 K, x1 = 0.168 | – | 1786 | 8.71
308.15 K, x1 = 0.24 | – | 1727 | 15.67
308.15 K, x1 = 0.35 | – | 1664 | –
308.15 K, x1 = 0.351 | – | – | 24.2
308.15 K, x1 = 0.549 | – | 1555 | 36.6
308.15 K, x1 = 0.708 | – | 1509 | –
308.15 K, x1 = 0.714 | – | – | 41.9
310.65 K, x1 = 0.015 | – | – | 1.003
310.65 K, x1 = 0.055 | – | – | 2.15
310.65 K, x1 = 0.119 | – | – | 5
310.65 K, x1 = 0.168 | – | – | 7.94
310.65 K, x1 = 0.351 | – | – | 21.7
310.65 K, x1 = 0.714 | – | – | 37.4
310.65 K, x1 = 0.84 | – | – | 38
313.15 K, x1 = 0.015 | – | 1605 | 0.952
313.15 K, x1 = 0.055 | – | 1739 | 2.01
313.15 K, x1 = 0.119 | – | 1794 | 4.6
313.15 K, x1 = 0.168 | – | 1772 | 7.26
313.15 K, x1 = 0.24 | – | 1713 | 12.76
313.15 K, x1 = 0.35 | – | 1650 | –
